# Assay results from patent publication US20120196342A1, “Industrial Applications of A Novel Aldo/Keto Reductase Of Zymomonas Mobilis” (priority 2011, published 2012).
# Read-outs that look alike come from different tables or passages of the source.
# T1: recombinant ZMO0976 (Zymomonas mobilis, UniProt Q5NNW0)
# T1 sequence (Q5NNW0 1-340): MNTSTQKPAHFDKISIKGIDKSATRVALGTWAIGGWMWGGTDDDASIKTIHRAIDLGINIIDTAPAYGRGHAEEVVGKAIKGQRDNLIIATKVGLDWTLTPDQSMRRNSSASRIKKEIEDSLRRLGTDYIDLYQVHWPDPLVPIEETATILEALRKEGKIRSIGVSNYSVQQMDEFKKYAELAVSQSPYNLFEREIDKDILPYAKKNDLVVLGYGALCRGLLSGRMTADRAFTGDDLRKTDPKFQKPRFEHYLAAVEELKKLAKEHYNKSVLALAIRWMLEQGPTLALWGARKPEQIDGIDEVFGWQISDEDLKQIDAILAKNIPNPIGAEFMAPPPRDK
# Columns and labels:
# recombinant ZMO0976 = target: T1, recombinant ZMO0976; assay: Substrate and cofactor profile and Michaelis-Menten kinetics of recombinant ZMO0976; assay type: biochemical, Z. mobilis
# Protocol: (§1) E. coli cells were prepared for enzymatic assays using the procedure described in, for example, Akinterinwa, and Cirino, “Heterologous expression of D-xylulokinase from Pichia stipitis enables high levels of xylitol production by engineered Escherichia coli growing on xylose,” Metabolic Engineering 11(1): pp. 48-55. Briefly, cells were harvested by centrifugation at 5,000 g at 4° C. for 30 min. Cells were washed once with extraction buffer [10 mM Tris-HCl pH 7.5, 5 mM MgCl2, 1 mM dithothreitol (DTT) and 1 mM phenylmethylsulfonyl fluoride (PMSF) (Sigma-Aldrich, St. Louis, Mo.)]. Washed cell pellets were stored at −20° C. until use. Cell pellets were resuspended to an OD of 50 in equilibration buffer (50 mM Na2HPO4, 300 mM NaCl and 10 mM imidazole at pH 8 (Sigma-Aldrich, St. Louis, Mo.)) supplemented with 1 mM DTT and 1 mM PMSF, and sonicated (8 cycles of 10 s with 30 s cooling period). Cell debris was discarded after centrifugation at 16,000 g for 20 min at 4° C. Supernatant was used as cell-free extract (CFE) for enzymatic assays. Bradford Assay was used for estimation of protein concentration in the extract. His-tagged protein in the cell-free extract was purified at 4° C. using HIS-Select® HF Nickel Affinity Gel (Sigma-Aldrich, St. Louis, Mo.), which employs immobilized metal-ion affinity chromatography (IMAC). Manufacturer's protocol for large scale purification was followed. Briefly, 10 ml of cell-free extract was added to 1 ml of affinity gel in equilibration buffer. After overnight incubation, the gel was washed five times with equilibration buffer. The bound his-tagged protein was then eluted using 2 ml of elution buffer (50 mM Na2HPO4, 300 mM NaCl and 250 mM imidazole at pH 8). Imidazole was removed by overnight dialysis at 4° C. using extraction buffer as the dialysis solution.
# (§2) Cell-free extract for Z. mobilis was prepared as above except that extraction buffer was used for sonication and after which, cell debris were spun down at higher centrifugal force (53,300 g). All enzymatic assay reactions were carried out in a final volume of 200 μl on a microplate. NAD(P)H (Sigma-Aldrich, St. Louis, Mo.) absorbance was measured at 340 nm using Spectramax M5 Plus spectrophotometer (Molecular devices, Sunnyvale, Calif.). Xylose reductase was assayed in McIlvaine buffer at pH 7.2 (prepared by adding 16.5 ml of 0.2 M Na2HPO4 to 3.5 ml of 0.1 M citric acid (Sigma-Aldrich, St. Louis, Mo.)) containing 0.35 mM NADPH or NADH (as indicated) and an appropriate volume of sample (cell-free extract or purified protein) according to Viikari, L. and M. Korhola (1986), “Fructose metabolism in Zymomonas mobilis,” Applied Microbiology and Biotechnology 24(6): 471-476.
# (§3) Xylose concentration in the assay mixture is indicated in the text. For measuring the catalytic activity of xylose reductase towards other substrates, similar assay conditions were used. Km and Vmax were determined by varying the substrate concentrations in the assay mixture and fitting the data to Lineweaver-Burk equation: 1/v=(Km/Vmax) […]+1/Vmax. Xylitol concentration was determined enzymatically. The reaction was carried out with a total volume of 200 μl in 42 mM Tris-HCl buffer at pH 8.5, 5 mM NAD, 10 mM MgSO4 (Sigma-Aldrich, St. Louis, Mo.), 4 U/ml sorbitol dehydrogenase (Roche Diagnostics, Indianapolis, Ind.) and 10 μl of sample. Xylitol concentration was estimated based on the amount of NADH produced by xylitol containing samples compared to that produced by xylitol standards. SDS-PAGE and Coommassie blue staining were used to confirm the expression of ZMO0976 and mZMO0976 proteins. 15 μg of cell-free extract protein and 1 μg of purified protein were loaded on a 12% Tris-HCl gel (Bio-Rad, Hercules, Calif.). Cell growth was determined by measuring optical density (OD) at 600 nm using spectrophotometer (Beckman Coulter DU 530, Brea, Calif.).
# Z. mobilis = conditions: cited from earlier work
# [1] = NADPH-dependent xylose reductase (XR) activity of recombinant ZMO0976/mZMO0976, E. coli UT5600 cell-free extract and purified protein; assay type: biochemical; conditions: for XR activities of the purified proteins: His-tag purified protein, NADPH; for Xylose reductase activity: NADPH as cofactor, purified protein or cell-free extract (CFE) as named in label
# Protocol: as §1, §2
# as §3, with “Xylitol concentration was estimated based on the amount of NADH produced by xylitol containing samples compared to that produced by xylitol standards. SDS-PAGE and Coommassie blue staining were used to confirm the expression of ZMO0976 and mZMO0976 proteins. 15 μg of cell-free extract protein and 1 μg of purified protein were loaded on a 12% Tris-HCl gel (Bio-Rad, Hercules, Calif.).” left out
# [2] = Reductase activity of purified ZMO0976/mZMO0976 towards furfural; assay type: biochemical; conditions: for Specific XR activity, Furfural (10 mM): purified protein, no unit in table, in mU/mg protein
# Protocol: (§4) E. coli cells were prepared for enzymatic assays using the procedure described in, for example, Akinterinwa, and Cirino, “Heterologous expression of D-xylulokinase from Pichia stipitis enables high levels of xylitol production by engineered Escherichia coli growing on xylose,” Metabolic Engineering 11(1): pp. 48-55. Briefly, cells were harvested by centrifugation at 5,000 g at 4° C. for 30 min. Cells were washed once with extraction buffer [10 mM Tris-HCl pH 7.5, 5 mM MgCl2, 1 mM dithothreitol (DTT) and 1 mM phenylmethylsulfonyl fluoride (PMSF) (Sigma-Aldrich, St. Louis, Mo.)]. Washed cell pellets were stored at −20° C. until use. Cell pellets were resuspended to an OD of 50 in equilibration buffer (50 mM Na2HPO4, 300 mM NaCl and 10 mM imidazole at pH 8 (Sigma-Aldrich, St. Louis, Mo.)) supplemented with 1 mM DTT and 1 mM PMSF, and sonicated (8 cycles of 10 s with 30 s cooling period). Cell debris was discarded after centrifugation at 16,000 g for 20 min at 4° C. Supernatant was used as cell-free extract (CFE) for enzymatic assays. Bradford Assay was used for estimation of protein concentration in the extract. His-tagged protein in the cell-free extract was purified at 4° C. using HIS-Select® HF Nickel Affinity Gel (Sigma-Aldrich, St. Louis, Mo.), which employs immobilized metal-ion affinity chromatography (IMAC). […]
# (§5) Cell-free extract for Z. mobilis was prepared as above except that extraction buffer was used for sonication and after which, cell debris were spun down at higher centrifugal force (53,300 g). […] NAD(P)H (Sigma-Aldrich, St. Louis, Mo.) absorbance was measured at 340 nm using Spectramax M5 Plus spectrophotometer (Molecular devices, Sunnyvale, Calif.). […]
# (§6) Xylose concentration in the assay mixture is indicated in the text. […] Km and Vmax were determined by varying the substrate concentrations in the assay mixture and fitting the data to Lineweaver-Burk equation: 1/v=(Km/Vmax) […]+1/Vmax. Xylitol concentration was determined enzymatically. […] Cell growth was determined by measuring optical density (OD) at 600 nm using spectrophotometer (Beckman Coulter DU 530, Brea, Calif.).
# [3] = Reductase activity of purified ZMO0976/mZMO0976 towards benzaldehyde; assay type: biochemical; conditions: for Specific XR activity, Benzaldehyde (2 mM): purified protein, no unit in table, in mU/mg protein
# Protocol: as §4, §5, §6
# [4] = Reductase activity of purified ZMO0976/mZMO0976 towards acetaldehyde; assay type: biochemical; conditions: for Specific XR activity, Acetaldehyde (520 mM): purified protein, no unit in table, in mU/mg protein
# Protocol: as §4, §5, §6
# [5] = substrate 260 mM; NADPH cofactor; benzaldehyde = 1
# [6] = 0.35 mM NADPH; Lineweaver-Burk fit
molecule,measurement,setting,value
CC=O [Acetaldehyde],Activity of ZMO0976 towards the substrate (in words),recombinant ZMO0976; NADPH as cofactor,showed activity
same,Fold reduction in ZMO0976 activity with NADH as cofactor compared to NADPH,recombinant ZMO0976; substrate 260 mM; 0.35 mM of either cofactor,53
same,Relative activity,recombinant ZMO0976; [5],0.62
O=Cc1ccccc1 [Benzaldehyde],Affinity of ZMO0976 compared with xylose (in words),recombinant ZMO0976,one to two orders of magnitude higher
same,"Km, fold lower than xylose",recombinant ZMO0976,about 150 fold
same,Apparent Vmax,recombinant ZMO0976; [6],7200 ± 200 mU/mg protein
same,Km,recombinant ZMO0976; 0.35 mM NADPH; Lineweaver-Burk fit; read-out: Apparent Km,1770 µM
same,Activity of ZMO0976 towards the substrate (in words),recombinant ZMO0976; NADPH as cofactor,showed activity
same,Relative activity,recombinant ZMO0976; substrate 2 mM; NADPH cofactor; benzaldehyde = 1,1
O=C(CO)[C@@H](O)[C@H](O)[C@H](O)CO [Fructose],Activity of ZMO0976 towards the substrate (in words),recombinant ZMO0976; NADPH as cofactor,negligible activity
same,Relative activity,recombinant ZMO0976; [5],0
O=Cc1ccco1 [Furfural],Affinity of ZMO0976 compared with xylose (in words),recombinant ZMO0976,one to two orders of magnitude higher
same,Apparent Vmax,recombinant ZMO0976; [6],5000 ± 1300 mU/mg protein
same,Activity of ZMO0976 towards the substrate (in words),recombinant ZMO0976; NADPH as cofactor,showed activity
same,Km,recombinant ZMO0976; read-out: Apparent Km; 0.35 mM NADPH; Lineweaver-Burk fit,4150 µM
same,Relative activity,recombinant ZMO0976; substrate 5.2 mM; NADPH cofactor; benzaldehyde = 1,0.81
same,Fold reduction in ZMO0976 activity with NADH as cofactor compared to NADPH,recombinant ZMO0976; substrate 10 mM; 0.35 mM of either cofactor,10
same,Concentration at which growth is completely inhibited,Z. mobilis,52 mM
same,Concentration that reduces the growth rate of Z. mobilis by 25%,Z. mobilis,7.3 mM
"O=Cc1ccc(CO)o1 [HMF, 5-hydroxymethylfurfural]",Activity of ZMO0976 towards the substrate (in words),recombinant ZMO0976; NADPH as cofactor,showed activity
same,Relative activity,recombinant ZMO0976; substrate 10 mM; NADPH cofactor; benzaldehyde = 1,0.11
same,Concentration at which growth is completely inhibited,Z. mobilis,63 mM
same,Concentration that reduces the growth rate of Z. mobilis by 25%,Z. mobilis,9.5 mM
"ZMO0976: 341 amino acid aldo/keto reductase of Z. mobilis ZM4, His-tagged, expressed in E. coli UT5600 (protein, His tag; sequence of aldo/keto reductase ZMO0976 (see Fig. 4A), 341 amino acid aldo/keto reductase of Z. mobilis ZM4, His-tagged, expressed in E. coli UT5600) MNTSTQKPAHFDKISIKGIDKSATRVALGTWAIGGWMWGGTDDDASIKTIHRAIDLGINIIDTAPAYGRGHAEEVVGKAIKGQRDNLIIATKVGLDWTLTPDQSMRRNSSASRIKKEIEDSLRRLGTDYIDLYQVHWPDPLVPIEETATILEALRKEGKIRSIGVSNYSVQQMDEFKKYAELAVSQSPYNLFEREIDKDILPYAKKNDLVVLGYGALCRGLLSGRMTADRAFTGDDLRKTDPKFQKPRFEHYLAAVEELKKLAKEHYNKSVLALAIRWMLEQGPTLALWGARKPEQIDGIDEVFGWQISDEDLKQIDAILAKNIPNPIGAEFMAPPPRDK",XR activities of the purified proteins,[1],3400 mU/mg
same,Xylose reductase activity,[1]; listed as Purified recombinant ZMO0976,3400 ± 200 mU/mg protein
same,Xylose reductase activity,[1]; listed as ZM00976,3400±200 mU/mg protein
same,furfural reductase activity,[2],5470±60 mU/mg protein
same,"Specific XR activity, Furfural (10 mM)",[2],5470 ± 60
same,benzaldehyde reductase activity,[3],4030±250 mU/mg protein
same,"Specific XR activity, Benzaldehyde (2 mM)",[3],4030 ± 250
same,acetaldehyde reductase activity,[4],2500±400 mU/mg protein
same,"Specific XR activity, Acetaldehyde (520 mM)",[4],2500 ± 400
"mZMO0976: mutated ZMO0976 from adapted strain A3, single arginine to cysteine mutation at residue 292 (C874T) (protein, His tag; sequence of aldo/keto reductase mZMO0976 (see Fig. 4B)) MNTSTQKPAHFDKISIKGIDKSATRVALGTWAIGGWMWGGTDDDASIKTIHRAIDLGINIIDTAPAYGRGHAEEVVGKAIKGQRDNLIIATKVGLDWTLTPDQSMRRNSSASRIKKEIEDSLRRLGTDYIDLYQVHWPDPLVPIEETATILEALRKEGKIRSIGVSNYSVQQMDEFKKYAELAVSQSPYNLFEREIDKDILPYAKKNDLVVLGYGALCRGLLSGRMTADRAFTGDDLRKTDPKFQKPRFEHYLAAVEELKKLAKEHYNKSVLALAIRWMLEQGPTLALWGACKPEQIDGIDEVFGWQISDEDLKQIDAILAKNIPNPIGAEFMAPPPRDK",XR activities of the purified proteins,[1],140 mU/mg
same,Xylose reductase activity,[1],140 ± 50 mU/mg protein
same,"Specific XR activity, Furfural (10 mM)",[2],180 ± 30
same,"Specific XR activity, Benzaldehyde (2 mM)",[3],40 ± 10
same,"Specific XR activity, Acetaldehyde (520 mM)",[4],170 ± 30
